According to patent US20240327417A1, “HETEROCYCLIC COMPOUNDS” (BeiGene Switzerland GmbH, priority 2021, published 2024):

What was measured:
[1] = target: T1, Full length DGKζ (in-house protein M1-V929) (Homo sapiens, UniProt Q13574); assay: Biochemical DGK IC50 assay (ADP-Glo, lipid micelle substrate), DGKζ; settings: 0.5 nM enzyme, 140 μM ATP, 80 μM DAG, 1 hour preincubation, 1 hour reaction, room temperature, read-out: IC50s for DGKζ
T1 construct: His (N); TEV cleavage site (N); made in house; host or cells: Sf9 insect cells (baculovirus, Bac-to-Bac)
Method in brief: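 In-house full-length human DGKζ, baculovirus-expressed in Sf9 cells, was assayed with a DAG/PS lipid micelle substrate at room temperature. Buffer was 50 mM HEPES, 10 mM MgCl2, 0.01% BSA, 0.1 mM Na3VO4, 0.005% Tween-20, 0.01 mM CaCl2, with final compound 1.55˜10000 nM or 23.3˜150000 nM.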

[2] = target: T2, Full length DGKα (D21-10BG, SignalChem) (Homo sapiens, UniProt P23743); assay: Biochemical DGK IC50 assay (ADP-Glo, lipid micelle substrate), DGKα; settings: 7.5 nM enzyme, 140 μM ATP, 80 μM DAG, 1 hour preincubation, 1 hour reaction, room temperature, read-out: IC50s for DGKα
T2 construct: Full length DGKα (D21-10BG, SignalChem); purchased SignalChem D21-10BG
Method in brief: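 Full-length enzyme was assayed by ADP-Glo on DAG/PS lipid micelles at room temperature in HEPES/MgCl2/CaCl2 buffer with BSA, Na3VO4 and Tween-20, using a 1 h reaction and luminescence read-out.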

T2 sequence (P23743 whole entry): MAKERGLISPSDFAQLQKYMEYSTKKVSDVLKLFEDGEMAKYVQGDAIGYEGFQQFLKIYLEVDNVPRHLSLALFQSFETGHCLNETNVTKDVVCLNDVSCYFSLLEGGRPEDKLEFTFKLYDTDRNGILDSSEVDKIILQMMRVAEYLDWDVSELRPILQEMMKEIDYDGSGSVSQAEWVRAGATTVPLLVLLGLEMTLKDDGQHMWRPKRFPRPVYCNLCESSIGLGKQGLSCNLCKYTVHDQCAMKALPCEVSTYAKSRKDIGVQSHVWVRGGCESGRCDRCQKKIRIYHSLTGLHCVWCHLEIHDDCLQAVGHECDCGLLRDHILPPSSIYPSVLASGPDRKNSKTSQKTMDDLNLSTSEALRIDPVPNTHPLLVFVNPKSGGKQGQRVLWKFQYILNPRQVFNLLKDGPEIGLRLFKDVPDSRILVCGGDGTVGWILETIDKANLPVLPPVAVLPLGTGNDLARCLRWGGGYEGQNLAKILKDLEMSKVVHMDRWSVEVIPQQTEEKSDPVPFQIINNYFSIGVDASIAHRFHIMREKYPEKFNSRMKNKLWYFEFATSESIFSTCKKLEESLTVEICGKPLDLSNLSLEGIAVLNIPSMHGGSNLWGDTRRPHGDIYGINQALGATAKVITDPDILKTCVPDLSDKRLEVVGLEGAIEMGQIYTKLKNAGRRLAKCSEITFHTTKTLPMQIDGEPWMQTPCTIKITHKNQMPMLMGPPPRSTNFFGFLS
T1 sequence (Q13574 1-929 isoform Q13574-4): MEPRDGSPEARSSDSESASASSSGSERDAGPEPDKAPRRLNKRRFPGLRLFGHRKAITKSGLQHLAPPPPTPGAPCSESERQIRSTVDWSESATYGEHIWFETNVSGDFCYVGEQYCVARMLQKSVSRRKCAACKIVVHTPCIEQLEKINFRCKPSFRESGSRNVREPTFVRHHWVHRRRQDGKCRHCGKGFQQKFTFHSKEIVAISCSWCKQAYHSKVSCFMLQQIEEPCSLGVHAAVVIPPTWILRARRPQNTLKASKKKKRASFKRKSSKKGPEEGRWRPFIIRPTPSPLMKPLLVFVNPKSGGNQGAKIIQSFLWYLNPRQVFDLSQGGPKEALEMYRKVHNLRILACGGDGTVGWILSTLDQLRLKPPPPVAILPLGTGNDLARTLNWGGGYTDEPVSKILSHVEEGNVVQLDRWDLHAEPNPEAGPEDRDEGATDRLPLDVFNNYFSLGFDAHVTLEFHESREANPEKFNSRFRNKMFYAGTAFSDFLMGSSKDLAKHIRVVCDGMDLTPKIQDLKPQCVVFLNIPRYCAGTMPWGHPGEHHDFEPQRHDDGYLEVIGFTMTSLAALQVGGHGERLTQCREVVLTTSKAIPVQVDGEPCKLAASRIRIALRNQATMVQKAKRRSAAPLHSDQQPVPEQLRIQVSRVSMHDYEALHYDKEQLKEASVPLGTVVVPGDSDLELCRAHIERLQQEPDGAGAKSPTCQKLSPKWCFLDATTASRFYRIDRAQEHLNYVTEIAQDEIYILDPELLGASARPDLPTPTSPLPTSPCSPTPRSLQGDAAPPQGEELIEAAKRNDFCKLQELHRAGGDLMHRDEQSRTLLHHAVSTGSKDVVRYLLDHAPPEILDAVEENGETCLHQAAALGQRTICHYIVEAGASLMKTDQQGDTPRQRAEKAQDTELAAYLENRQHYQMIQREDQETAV

| SMILES | IC50 [1] [nM] | IC50 [2] [nM] |
| --- | --- | --- |
| CC[C@H]1CN(C(C)c2ccncc2)[C@H](CC)CN1c1cc(=O)n(C)n2cc(CC#N)nc12 (stereo partly drawn) [Compound A35, 2-(8-((2S,5R)-2,5-diethyl-4-(1-(pyridin-4-yl)ethyl)piperazin-1-yl)-5-methyl-6-oxo-5,6-dihydroimidazo[1,2-b]pyridazin-2-yl)acetonitrile] | 3120 | 42 |
| CC[C@@H]1CN(c2cc(=O)n(C)n3cc(COC)nc23)[C@@H](C)CN1C(C)c1ccc(C(F)(F)F)cc1F (single isomer, unassigned) [Compound A16b] | > 10000 | 8460 |
| CC[C@@H]1CN(c2c(C#N)c(=O)n(C)n3cc(CC#N)nc23)[C@@H](C)CN1C(C)c1ccc(C2CC2)nc1 (single isomer, unassigned) [Compound A74b] | 1550 | 1430 |
| CC[C@H]1CN(C(C)c2ccc(C(F)(F)F)cc2)[C@H](CC)CN1c1cc(=O)n(C)n2cc(CC#N)nc12 (single isomer, unassigned) [Compound A91a] | 73 | 155 |
| CC[C@H]1CN(C(C)c2ccc3nc(C)sc3n2)[C@H](CC)CN1c1cc(=O)n(C)n2cc(CC#N)nc12 (single isomer, unassigned) [Compound A58a] | 2160 | 1220 |
| CC[C@H]1CN(C(C)c2cc3sc(C)nc3cc2F)[C@H](CC)CN1c1cc(=O)n(C)n2cc(CC#N)nc12 (single isomer, unassigned) [Compound A61b] | 2000 | 5520 |
| CC[C@@H]1CN(c2cc(=O)n(C)n3cc(CC#N)nc23)[C@@H](CC)CN1Cc1ccc(OC(F)(F)F)cc1 [Compound A36, 2-(8-((2S,5R)-2,5-diethyl-4-(4-(trifluoromethoxy)benzyl)piperazin-1-yl)-5-methyl-6-oxo-5,6-dihydroimidazo[1,2-b]pyridazin-2-yl)acetonitrile] | 241 | 14 |
| CC#CCc1cn2c(n1)c(N1C[C@@H](CC)N(C(C)c3ccc4nc(C)sc4c3)C[C@@H]1CC)cc(=O)n2C (single isomer, unassigned) [Compound A68a] | 104 | 26 |
| CCC(c1ccc(C(F)(F)F)cc1)N1C[C@H](CC)N(c2cc(=O)n(C)n3cc(CC#N)nc23)C[C@H]1CC (single isomer, unassigned) [Compound A77a] | 255 | 102 |
| CC[C@H]1CN(C(C)c2ccc(C3CC3)nc2)[C@H](CC)CN1c1c(C#N)c(=O)n(C)n2cc(CC#N)nc12 (single isomer, unassigned) [Compound A75b] | 1050 | 1300 |
| CC#CCc1cn2c(n1)c(N1C[C@@H](CC)N(C(C)c3ccc4nc(C)sc4n3)C[C@@H]1CC)cc(=O)n2C (single isomer, unassigned) [Compound A115a] | > 10000 | 288 |
| CC[C@@H]1CN(c2cc(=O)n(C)n3cc(CC#N)nc23)[C@@H](C)CN1C(C)c1ccc2nc(C)sc2n1 (single isomer, unassigned) [Compound A84b] | 5090 | 3310 |
| CC[C@H]1CN(C(C)c2ccc(C(C)(C)F)nc2)[C@H](CC)CN1c1cc(=O)n(C)n2cc(CC#N)nc12 (single isomer, unassigned) [Compound A46a] | 6.4 | 122 |
| CC[C@H]1CN(C(C)c2ccc3cc(F)sc3n2)[C@H](CC)CN1c1cc(=O)n(C)n2cc(CC#N)nc12 (single isomer, unassigned) [Compound A105a] | 706 | 195 |
| CC[C@H]1CN(C(C)c2ccc3nc(CC4CC4)sc3n2)[C@H](CC)CN1c1cc(=O)n(C)n2cc(CC#N)nc12 (single isomer, unassigned) [Compound A110b] | 15 | 61 |
| CC[C@@H]1CN(c2cc(=O)n(C)n3cc(CC#N)nc23)[C@@H](C)CN1C(C)c1ccc2cc(F)sc2n1 (stereo partly drawn) [Compound A106, 2-(8-((2S,5R)-5-ethyl-4-(1-(2-fluorothieno[2,3-b]pyridin-6-yl)ethyl)-2-methylpiperazin-1-yl)-5-methyl-6-oxo-5,6-dihydroimidazo[1,2-b]pyridazin-2-yl)acetonitrile] | 96 | 26 |
